Results taken from patent publication US12441763B2, “Hangtaimycin derivatives and their preparation methods and application” (WUHAN UNIVERSITY, priority 2022, dated 2025).

Key:
bladder cancer = test: Antitumor activity, MTT cell viability, bladder cancer; format: cell-based; settings: 50 μg/mL, 24 hours, P<0.01
Description: (§1) In a 96-well microplate, 100 μL of culture medium was put in each well and inoculate four cell strains with a fusion degree of 80% at a density of 8×10^3 cells. Cells were grown at 37° C., CO2 (5%) and air (95%). Each 96-well plate was placed with a concentration gradient of 0˜100 μg/mL of test compounds HTM, HTMA, HTMB, and HTMP. After 24 hours of incubation, the medium was removed, and 0.5 mg/mL MTT solution was added to each medium with cells and continue to incubate the cells for 4 hours at 37° C. Then 100 μL of DMSO was added to dissolve formazan crystals. Finally, absorbance was measured at 570 nm using a microplate reader (Bioteck EON, USA). The viability of the cells was calculated as the percentage of cell viability compared to vehicle control-treated cells, which were arbitrarily assigned as 100% viability. Each independent experiment was repeated five times. (*P<0.05, **P<0.01, ***P<0.001)

[1] = system: carrageenan-induced paw inflammation; test: Anti-inflammatory effect in inflammatory model induced by carrageenan (paw); format: in vivo, Kunming mice; settings: 10 mg/mL, 10 μL subcutaneous into right hind paw; 4 hours after carrageenan injection; vs carrageenan+solvent group; P<0.05
Description: Male Kunming mice weighing 18˜22 g were adaptively reared for 1 day, and then randomly divided into […] (5˜6 mice per group): the saline+solvent group, the saline+HTM group, the saline+HTMP group, the saline+HTMA group, the saline+HTMB group, the saline+rapamycin (250 nM) group, the carrageenan+solvent group, the carrageenan+HTM group, the carrageenan+HTMP group, the carrageenan+HTMA group, the carrageenan+HTMB group, and the carrageenan+rapamycin (250 nM) group. Where doses used for HTM, HTMP, HTMA, and HTMB were set at 1, 3, and 10 mg/mL, and their solutions all contained 5% DMSO. Experiments were designed based on previous studies (Zhang et al., 2018). Carrageenan was used to induce paw inflammation, and the experimental procedure was as follows:
(1) The thickness of the right hind foot of mice was measured with a vernier caliper before the experiment, and the measurement site was marked.
(2) The experimental group was then subcutaneously injected into the right hind paw with 10 μL of different concentrations of compound solutions. The control group was injected with 10 μL saline into the right hind paw.
(3) After administration, the carrageenan group was injected subcutaneously with 30 μL of 1% carrageenan solution into the right hind paw, and the other groups were injected with an equal volume of saline. The thickness of the right hind foot of each mouse was measured at the same site every 1 hour for the following 4 hours to observe the effect of the compounds on the change in foot thickness.

HepG2 cells = test: Cellular assay for hepatoprotective activity, CCl4-induced liver injury cell model; format: cell-based; settings: compared with the CCl4 group; HepG2 cell homogenates
Description: HepG2 cells were seeded into 24-well plates and kept at 37° C. in 5% CO2 in order to achieve 80% fusion. To evaluate the effects of HTMA, HTMB, and HTMP on aspartate aminotransferase (AST) and alanine aminotransferase (ALT) activity, and compare the results with those of Silymarin (positive control) (FIG. 26), a cellular assay for hepatoprotective activity was carried out using a CCl4-induced liver injury cell model. The cells were treated with the compounds followed by ultrasound disruption and cell homogenization to prepare the cell homogenates for analysis.

[2] = Antioxidant activity, DPPH free radical scavenging; format: biochemical; settings: 1~50 μg/mL, 0.1 mM DPPH, absorbance at 517 nm
Description: In this experiment, a 0.1 mM DPPH solution was prepared with ethanol, and each sample solution/dispersion was separately mixed with the DPPH solution in order to dilute it into a reaction product with a concentration gradient of 1˜50 μg/mL to evaluate the concentration-dependent antioxidant potential. The reaction product was measured for its absorbance (AS) at 517 nm using an ultraviolet-visible spectrophotometer, and its antioxidant activity was measured using DPPH removal as an indicator. The percentage of DPPH free radical scavenging is calculated by the following formula: […]
AS is the absorbance of the sample and A0 is the absorbance of the control (only DPPH solution).

liver cancer = test: Antitumor activity, MTT cell viability, liver cancer; format: cell-based; settings: 50 μg/mL, 24 hours, P<0.01
Description: as §1

renal cancer = test: Antitumor activity, MTT cell viability, renal cancer; format: cell-based; settings: 50 μg/mL, 24 hours, P<0.01
Description: as §1

breast cancer = test: Antitumor activity, MTT cell viability, breast cancer; format: cell-based; settings: 50 μg/mL, 24 hours, P<0.01
Description: as §1

Substance: Deoxyhangtaimycin [HTMP]
- survival rate of bladder cancer (bladder cancer): significantly inhibited
- right hind foot thickness [1]: reduced
- ALT levels (HepG2 cells): significantly reduced
- AST levels (HepG2 cells): significantly reduced
- antioxidant capacity (DPPH free radical scavenging) [2]: have antioxidant capacity
- survival rate of liver cancer (liver cancer): significantly inhibited
- survival rate of renal cancer (renal cancer): significantly inhibited
- survival rate of breast cancer (breast cancer): significantly inhibited
